In EP1023075B1, “LIQUID PRESENTATIONS OF OXAZAPHOSPHORINE-CONTAINING PHARMACEUTICAL PRODUCTS” (STADA ARZNEIMITTEL AG, priority 1997, dated 1999):
In brackets after ≈: the same amount, converted by molar mass. Where two headings read alike, the source gives them in different places.

How the values were obtained:
[1] = cited from earlier work
[2] = Solubility trials: saturation concentration of the oxazaphosphorine in water / aqueous urea solution; conditions: for pH-Wert: saturated Ifosfamid solution
[3] = water, Sättigungskonzentration in Wasser, in Wasser

In the case of `O=P1(N(CCCl)CCCl)NCCCO1` (stereo not shown) [Cyclophosphamid], the Wirkstoffverlust ([1]; 2%ige (G/V) wäßrige Cyclophosphamidlösungen, 2 bis 8°C, nach 17 Wochen, 171360 min) is listed as at most 10%, the Wirkstoffverlust ([1]; 2%ige (G/V) wäßrige Cyclophosphamidlösungen, Raumtemperatur, nach 7 Tagen) is listed as at most 10% and the solubility ([2]; aqueous urea solution, Cyclophosphamid-Endkonzentration, Harnstoff-Startkonzentration 10 % (G/V), Harnstoff-Endkonzentration 9,1 % (G/G)) is listed as 87 mg/mL (≈ 333 mM). The solubility ([2]; aqueous urea solution, Cyclophosphamid-Endkonzentration, Harnstoff-Startkonzentration 20 % (G/V), Harnstoff-Endkonzentration 17,0 % (G/G)) was 112 mg/mL (≈ 429 mM), the solubility ([2]; aqueous urea solution, Cyclophosphamid-Endkonzentration, Harnstoff-Startkonzentration 30 % (G/V), Harnstoff-Endkonzentration 24,2 % (G/G)) was 136 mg/mL (≈ 521 mM) and the solubility ([2]; aqueous urea solution, Cyclophosphamid-Endkonzentration, Harnstoff-Startkonzentration 40 % (G/V), Harnstoff-Endkonzentration 30,3 % (G/G)) was 172 mg/mL (≈ 659 mM). The solubility ([2]; aqueous urea solution, Cyclophosphamid-Endkonzentration, Harnstoff-Startkonzentration 45 % (G/V), Harnstoff-Endkonzentration 37,3 % (G/G)) was 170 mg/mL (≈ 651 mM), the solubility ([2]; aqueous urea solution, Cyclophosphamid-Endkonzentration, Harnstoff-Startkonzentration 50 % (G/V), Harnstoff-Endkonzentration 45,2 % (G/G)) was 152 mg/mL (≈ 582 mM) and the solubility ([2]; aqueous urea solution, Cyclophosphamid-Sättigungskonzentration, with Harnstoff, up to Harnstoffstartkonzentration 50% (G/V)) was at most 170 mg/mL. For the same compound, the solubility ([2]; water, Cyclophosphamid-Endkonzentration, Harnstoff-Startkonzentration 0 % (G/V), Harnstoff-Endkonzentration 0 % (G/G)) was 61 mg/mL (≈ 234 mM) and the solubility [2, 3] was about 60 mg/mL (≈ 230 mM).
For `O=P1(NCCCl)OCCCN1CCCl` (stereo not shown) [Ifosfamid], the Wirkstoffverlust ([1]; 5%ige und 10%ige (G/V) wäßrige Ifosfamidlösungen, 2 bis 8°C, nach 17 Wochen, 171360 min) is listed as at most 10%, the Wirkstoffverlust ([1]; 5%ige und 10%ige (G/V) wäßrige Ifosfamidlösungen, Raumtemperatur, nach 6 Wochen, 60480 min) is listed as at most 10% and the solubility ([2]; aqueous urea solution, Ifosfamid-Endkonzentration, Harnstoff-Startkonzentration 1,0 % (G/V), Harnstoff-Endkonzentration 0,8 % (G/G)) is listed as 128 mg/mL (≈ 490 mM). It also gave a solubility ([2]; aqueous urea solution, Ifosfamid-Endkonzentration, Harnstoff-Startkonzentration 2,0 % (G/V), Harnstoff-Endkonzentration 1,6 % (G/G)) of 132 mg/mL (≈ 506 mM), a solubility ([2]; aqueous urea solution, Ifosfamid-Endkonzentration, Harnstoff-Startkonzentration 3,0 % (G/V), Harnstoff-Endkonzentration 2,4 % (G/G)) of 139 mg/mL (≈ 532 mM) and a solubility ([2]; aqueous urea solution, Ifosfamid-Endkonzentration, Harnstoff-Startkonzentration 4,0 % (G/V), Harnstoff-Endkonzentration 3,2 % (G/G)) of 147 mg/mL (≈ 563 mM). The solubility ([2]; aqueous urea solution, Ifosfamid-Endkonzentration, Harnstoff-Startkonzentration 5,0 % (G/V), Harnstoff-Endkonzentration 3,8 % (G/G)) was 153 mg/mL (≈ 586 mM), the solubility ([2]; aqueous urea solution, Ifosfamid-Endkonzentration, Harnstoff-Startkonzentration 6,0 % (G/V), Harnstoff-Endkonzentration 4,4 % (G/G)) was 159 mg/mL (≈ 609 mM) and the solubility ([2]; aqueous urea solution, Ifosfamid-Endkonzentration, Harnstoff-Startkonzentration 7,0 % (G/V), Harnstoff-Endkonzentration 4,6 % (G/G)) was 169 mg/mL (≈ 647 mM). It also gave a solubility ([2]; aqueous urea solution, Ifosfamid-Endkonzentration, Harnstoff-Startkonzentration 8,0 % (G/V), Harnstoff-Endkonzentration 5,0 % (G/G)) of 172 mg/mL (≈ 659 mM), a solubility ([2]; aqueous urea solution, Ifosfamid-Endkonzentration, Harnstoff-Startkonzentration 9,0 % (G/V), Harnstoff-Endkonzentration 5,1 % (G/G)) of 173 mg/mL (≈ 663 mM) and a solubility ([2]; aqueous urea solution, Ifosfamid-Endkonzentration, Harnstoff-Startkonzentration 10,0 % (G/V), Harnstoff-Endkonzentration 6,6 % (G/G)) of 370 mg/mL (≈ 1420 mM). For the same compound, the solubility ([2]; aqueous urea solution, Ifosfamid-Endkonzentration, Harnstoff-Startkonzentration 12,5 % (G/V), Harnstoff-Endkonzentration 7,0 % (G/G)) was 412 mg/mL (≈ 1580 mM), the solubility ([2]; aqueous urea solution, Ifosfamid-Endkonzentration, Harnstoff-Startkonzentration 15 % (G/V), Harnstoff-Endkonzentration 12,2 % (G/G)) was 462 mg/mL (≈ 1770 mM) and the solubility ([2]; aqueous urea solution, Ifosfamid-Endkonzentration, Harnstoff-Startkonzentration 20 % (G/V), Harnstoff-Endkonzentration 15,8 % (G/G)) was 483 mg/mL (≈ 1850 mM). It also gave a solubility ([2]; aqueous urea solution, Ifosfamid-Endkonzentration, Harnstoff-Startkonzentration 30 % (G/V), Harnstoff-Endkonzentration 24,2 % (G/G)) of 521 mg/mL (≈ 2000 mM), a solubility ([2]; aqueous urea solution, Ifosfamid-Endkonzentration, Harnstoff-Startkonzentration 40 % (G/V), Harnstoff-Endkonzentration 34,3 % (G/G)) of 462 mg/mL (≈ 1770 mM) and a solubility ([2]; aqueous urea solution, Ifosfamid-Endkonzentration, Harnstoff-Startkonzentration 50 % (G/V), Harnstoff-Endkonzentration 42,1 % (G/G)) of 443 mg/mL (≈ 1700 mM). The solubility ([2]; aqueous urea solution, Ifosfamid-Sättigungskonzentration, bei geeigneter Harnstoffkonzentration) was about 500 mg/mL (≈ 1920 mM), the pH-Wert ([2]; Harnstoff-Startkonzentration 0 % (G/V)) was 5,2 and the pH-Wert ([2]; Harnstoff-Startkonzentration 1,0 % (G/V)) was 5,0. For the same compound, the pH-Wert ([2]; Harnstoff-Startkonzentration 2,0 % (G/V)) was 5,0, the pH-Wert ([2]; Harnstoff-Startkonzentration 3,0 % (G/V)) was 5,0 and the pH-Wert ([2]; Harnstoff-Startkonzentration 4,0 % (G/V)) was 5,1. For the same compound, the pH-Wert ([2]; Harnstoff-Startkonzentration 5,0 % (G/V)) was 5,1, the pH-Wert ([2]; Harnstoff-Startkonzentration 6,0 % (G/V)) was 5,1 and the pH-Wert ([2]; Harnstoff-Startkonzentration 7,0 % (G/V)) was 5,1. For the same compound, the pH-Wert ([2]; Harnstoff-Startkonzentration 8,0 % (G/V)) was 5,1, the pH-Wert ([2]; Harnstoff-Startkonzentration 9,0 % (G/V)) was 5,2 and the pH-Wert ([2]; Harnstoff-Startkonzentration 10,0 % (G/V)) was 5,1. The pH-Wert ([2]; Harnstoff-Startkonzentration 12,5 % (G/V)) was 5,0, the pH-Wert ([2]; Harnstoff-Startkonzentration 15 % (G/V)) was 5,0 and the pH-Wert ([2]; Harnstoff-Startkonzentration 20 % (G/V)) was 5,0. For the same compound, the pH-Wert ([2]; Harnstoff-Startkonzentration 30 % (G/V)) was 5,0, the pH-Wert ([2]; Harnstoff-Startkonzentration 40 % (G/V)) was 5,0 and the pH-Wert ([2]; Harnstoff-Startkonzentration 50 % (G/V)) was 5,0. It also gave a solubility ([2]; water, Ifosfamid-Endkonzentration, Harnstoff-Startkonzentration 0 % (G/V), Harnstoff-Endkonzentration 0 % (G/G)) of 118 mg/mL (≈ 452 mM) and a solubility [2, 3] of about 120 mg/mL (≈ 460 mM).
